Measurements from patent US4221808A, “Novel antihypertensive agent” (Richardson-Merrell Inc., priority 1979, dated 1980).

What was measured:
β-adrenergic receptor [1] = target: T1, β-adrenergic receptor (Cavia porcellus, UniProt H0W3H1); experiment: β-Adrenergic receptor blocking activity in isolated guinea pig atria, isoproterenol as agonist; type: cell-based; settings: isolated guinea pig atria; agonist isoproterenol; increase in rate; read-out: pA2 for β-adrenergic receptor blocking activity (converted)
T1 construct: isolated guinea pig atria preparation; from tissue; host or cells: guinea pig atria (isolated)
Description: (§1) β-Adrenergic receptor blocking activity was determined in vitro by performing cumulative dose-response experiments in the isolated guinea pig atria preparation using isoproterenol as the agonist. The response (increase in rate) of the guinea pig atria preparation in the presence of logarithmically increasing concentration of the compounds being tested were expressed as percent of the maximal attainable response. Relative antagonistic potency was expressed as a pA2 value, as defined above.

β-adrenergic receptor [2] = experiment: as above; type: cell-based; settings: from pA2 values, guinea pig atria (β) vs rabbit aortic strip (α)
Description: as §1

[3] = test system: spontaneously hypertensive rats (SHR); experiment: Antihypertensive activity in spontaneously hypertensive rats, systolic blood pressure by tail cuff; type: in vivo, rat; settings: oral dose of 50 mg/kg
Description: Antihypertensive activity was determined in spontaneously hypertensive rats (SHR) of the Okomotor Aoki strain. Systolic blood pressure of the SHR was measured from the caudal artery by means of an indirect method utilizing a photocell transducer/tail cuff occluder system. Time response relationships were determined for each compound following an oral dose of 50 mg/kg. Data were expressed as mm Hg decrease from control values. Statistical significance was determined using a 2 tailed "t" test comparing drug treatment response values to those obtained from concurrent vehicle treated animals.

α-adrenergic receptor = experiment: α-Adrenergic receptor blocking activity in isolated rabbit aortic strip, norepinephrine as agonist; type: cell-based; settings: contractile response
Description: α-Adrenergic receptor blocking activity was determined in vitro by performing cumulative dose-response experiments in the isolated rabbit aortic strip preparation using norepinephrine as the agonist. The contractile response of the rabbit strip preparation in the presence of logarithmically increasing concentrations of the compounds being tested were expressed as percent of the maximal attainable response.

T1 sequence (H0W3H1 1-470): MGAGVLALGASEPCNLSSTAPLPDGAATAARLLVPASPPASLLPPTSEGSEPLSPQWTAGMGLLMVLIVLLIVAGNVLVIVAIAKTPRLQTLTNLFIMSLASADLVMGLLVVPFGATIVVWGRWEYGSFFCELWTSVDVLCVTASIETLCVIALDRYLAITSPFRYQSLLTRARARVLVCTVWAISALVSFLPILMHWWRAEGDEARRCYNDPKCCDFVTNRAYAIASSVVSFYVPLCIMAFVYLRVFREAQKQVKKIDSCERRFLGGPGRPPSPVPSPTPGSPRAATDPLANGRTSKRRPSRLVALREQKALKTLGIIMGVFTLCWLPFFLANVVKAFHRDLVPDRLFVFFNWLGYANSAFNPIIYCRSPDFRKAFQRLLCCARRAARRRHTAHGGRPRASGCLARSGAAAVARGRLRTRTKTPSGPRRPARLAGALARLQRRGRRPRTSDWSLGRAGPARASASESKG

`COc1ccc(C(O)CNC(C)CCc2ccc3c(c2)OCO3)cc1C(N)=O.Cl` (stereo not shown) [compound 1, 5-[2-[[3-(1,3-Benzodioxol-5-yl)-1-methylpropyl]amino]-1-hydroxyethyl]-2-methoxybenzamide hydrochloride] was tested, and the Kb (β-adrenergic receptor [1]) was 3.47 nM, the “ratio of β/α blocking activity” value (β-adrenergic receptor [2]) was > 2089 and the “decrease in systolic blood pressure from control values” (shortened to “decrease in systolic blood pressure”) ([3]; after 1 hour) was 42 mm Hg. For the same compound, the “decrease in systolic blood pressure” value ([3]; after 4 hours) was 67 mm Hg and the “pA2 for α-adrenergic receptor blocking activity” value (from here on “pA2”) (α-adrenergic receptor) was 5.14.

`CC(CCc1ccc2c(c1)OCO2)NCC(O)c1ccc(O)c(C(N)=O)c1.Cl` (stereo not shown) [compound 2, 5-[2-[[3-(1,3-benzodioxol-5-yl)-1-methylpropyl]amino]-1-hydroxyethyl]-2-hydroxybenzamide hydrochloride] was tested, and the Kb (β-adrenergic receptor [1]) was 15.1 nM, the “ratio of β/α blocking activity” value (β-adrenergic receptor [2]) was 55 and the “decrease in systolic blood pressure” value ([3]; after 1 hour) was 71 mm Hg. The “decrease in systolic blood pressure” value ([3]; after 4 hours) was 64 mm Hg and the “pA2” value (α-adrenergic receptor) was 6.08.

With `Cc1ccc(N(CC2=NCCN2)c2cccc(O)c2)cc1` [phentolamine] the Kb (β-adrenergic receptor [1]) was > 10000 nM, the “decrease in systolic blood pressure” value ([3]; after 1 hour) was 62 mm Hg and the “decrease in systolic blood pressure” value ([3]; after 4 hours) was 60 mm Hg.

In the case of `CC(C)NCC(O)COc1cccc2ccccc12` (stereo not shown) [propranolol], the “decrease in systolic blood pressure” value ([3]; after 1 hour) is reported as “did not lower blood pressure significantly”, the “decrease in systolic blood pressure” value ([3]; after 4 hours) is reported as “did not lower blood pressure significantly” and the “pA2” value (α-adrenergic receptor) is reported as < 5.
